From PMC9468151, “Identification of a binding site on soluble RANKL that can be targeted to inhibit soluble RANK-RANKL interactions and treat osteoporosis” (Nature Communications, 2022)
Where “and” joins values, the source holds several entries; their conditions need not be identical. Equal entries are not always repeated.

B1: GST tag recombinant rat sRANKL (GST-sRANKL) (ligand, UniProt Q9ESE2 160-318, looked up)
chain: KPEAQPFAHLTINAADIPSGSHKVSLSSWYHDRGWAKISNMTLSNGKLRVNQDGFYYLYANICFRHHETSGSVPADYLQLMVYVVKTSIKIPSSHNLMKGGSTKNWSGNSEFHFYSINVGGFFKLRAGEEISVQVSNPSLLDPDQDATYFGAFKVQDID
notes: also called soluble RANKL; source: E. coli BL21 (DE3), purified (glutathione sepharose, Superdex 200 Increase)
B2: label-free rat sRANKL (wild type) (ligand, UniProt Q9ESE2 160-318, looked up)
chain: B1 chain
notes: RANKL, rat, soluble form sRANKL; also called WT sRANKL; soluble RANKL; source: E. coli BL21 (DE3), purified (Ni-NTA, released by Ulp1, HiLoad Superdex 200); not shown: His6, N-terminal, cleaved; SUMO, N-terminal, cleaved

Experiments:
[1] = system: sRANKL induced osteoclast differentiation; assay: In vitro anti-osteoclastogenesis activity determination (TRAP staining); type: cell-based, mouse; design: key to inhibition of osteoclastogenesis, dose-response (fig. S2a): % inhibition = 100 − (treated−unstimulated)/(untreated−unstimulated)×100; conditions: for inhibition of osteoclastogenesis, dose-response (fig. S2a): three replicate columns; for IC50: BMMs, M-CSF + 100 ng/mL sRANKL, 5 days, TRAP staining, read-out: OC IC50 (anti-osteoclastogenesis activity)
In short: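 IC50 came from a nonlinear curve fit of percent inhibition, computed from TRAP-positive osteoclast counts against unstimulated and untreated wells. Cells were murine BMMs with M-CSF (10 ng/mL), exposed 5 days to 100 ng/mL sRANKL and nine compound levels, re-dosed every 2 days, in triplicate.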

RAW264.7 cells = assay: In vitro cytotoxicity assay (MTT); type: cell-based, mouse; conditions: RAW264.7, MTT
Protocol: MTT assay was used to determine cell viability. RAW264.7 cells in the logarithmic growth phase were cultured in 96-well plates with 6 × 10^3 cells in each well and incubated for 24 h. The surviving cells were then determined by MTT method. […] Cell growth inhibition ratio was calculated as follows: Cellgrowthinhibitionratio%=ODvehicle−ODtreaed/ODvehicle×100%
Cell cytotoxicity CC50 value were conducted by using Nonlinear regression (curve fit) analytic procedure in GraphPad Prism 8.

sRANKL = target: T1, sRANKL (Rattus norvegicus, UniProt Q9ESE2, D175N); assay: Surface plasmon resonance (SPR) assay; type: binding; conditions: immobilized sRANKL, 25 °C
T1 construct: (1) sRANKL (rat 159-318 aa); His6-sumo (N, cleaved yes); made in house; host or cells: Escherichia coli BL21 (DE3)
T1 sequence (Q9ESE2 159-318 D175N): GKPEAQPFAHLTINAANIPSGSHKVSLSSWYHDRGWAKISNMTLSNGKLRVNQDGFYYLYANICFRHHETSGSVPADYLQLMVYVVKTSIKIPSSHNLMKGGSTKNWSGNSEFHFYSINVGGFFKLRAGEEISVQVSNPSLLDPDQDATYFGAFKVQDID
Protocol: A ProteOn XPR36TM SPR instrument (BioRad Hercules, CA) was used for carrying out SPR assays. sRANKL protein in PBS buffer, pH 7.4, was diluted to 20 nM in 10 mM sodium acetate buffer, pH 5.5 and immobilized in parallelflow channels of a the EDAC/Sulfo-NHS activated surface of a GLH biosensor chip (Bio-Rad) with an amine coupling kit (Bio-Rad). The surface was blocked with 1 M ethanolamine. The final immobilization level for sRANKL was approximately 14,000 RU. A blank immobilization channel in the same GLH biosensor chip was also activated with EDAC/Sulfo-NHS and blocked with 1 M ethanolamine to use as a reference.
Biosensor binding experiments were conducted in filtered and degassed running buffer (PBS containing 0.005% Tween-20, pH 7.4) at 25 °C. Compounds was dissolved in 100% DMSO in appropriate different series concentrations of stock solutions. Before detecting, compounds were diluted in six or five concentrations with running buffer and ensured that the content of DMSO contained in each detected concentration was consistent. Compounds in different concentrations were injected simultaneously at a flow rate at […] for 180 s and 120 s for the association phase, followed by 180 s for the disassociation. Following the compound injection, the chip surface was regenerated with 40 s pulses of 0.85% H3PO4 and running buffer.
ProtedOn Manager 2.0. was used for data analysis. Each set of sensorgrams was globally analyzed using the 1:1 Langmuir binding model to obtain the kinetic rate constants (Kon and Koff). Global kinetic rate constants (ka and kd) were derived for each reaction, and the equilibrium dissociation constant, KD, was calculated using the equation KD = kd/ka.

[2] = target: T2, recombinant RANK (mouse extracellular RANK fragment, residues 26-210) (mouse, UniProt O35305 26-210); assay: pull-down; 120 ug GST-sRANKL on the resin in PBS with 1% BSA, room temperature; compounds (50 uM) or 0.8% DMSO control for 30 min, then 25 ug RANK for 20 min; SDS-PAGE, Coomassie blue; conditions: both partners purified
T2 construct: RANK (TNFRSF11A), mouse, extracellular fragment, residues 26-210, cloned into pET28a between Nde I and Xho I; In the functional rows the RANK that was present is the endogenous receptor on mouse bone marrow cells; also called soluble RANK
T2 sequence (looked up): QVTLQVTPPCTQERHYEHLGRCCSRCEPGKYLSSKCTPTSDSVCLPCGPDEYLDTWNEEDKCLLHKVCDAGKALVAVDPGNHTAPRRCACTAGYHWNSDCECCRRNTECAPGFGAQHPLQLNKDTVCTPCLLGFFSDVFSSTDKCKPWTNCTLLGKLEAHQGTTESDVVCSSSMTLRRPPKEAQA

[3] = target: the molecule itself; assay: cross-linking; cross-link assay of sRANKL with S3-15; methods not shown

Kd (sRANKL) [µM]	binding result [2]	Molecule	inhibition of osteoclastogenesis, dose-response (fig. S2a) ([1]; conc. 0.0023464 μM)	inhibition of osteoclastogenesis, dose-response (fig. S2a) ([1]; conc. 0.00774313 μM)	inhibition of osteoclastogenesis, dose-response (fig. S2a) ([1]; conc. 0.0255523 μM)	inhibition of osteoclastogenesis, dose-response (fig. S2a) ([1]; conc. 0.0843226 μM)	inhibition of osteoclastogenesis, dose-response (fig. S2a) ([1]; conc. 0.278265 μM)	inhibition of osteoclastogenesis, dose-response (fig. S2a) ([1]; conc. 0.918274 μM)	inhibition of osteoclastogenesis, dose-response (fig. S2a) ([1]; conc. 3.0303 μM)	inhibition of osteoclastogenesis, dose-response (fig. S2a) ([1]; conc. 10 μM)	inhibition of osteoclastogenesis, dose-response (fig. S2a) ([1]; conc. 33 μM)	CC50 (RAW264.7 cells) [µM]	IC50 [1]	stoichiometry N [3]
211	–	CC(=O)C(=NNc1ccccc1C(=O)O)C(=O)Nc1nc(C)c(C(=O)O)s1 [S3-01]	5.532 (2×) and 2.66	13.1915 and 15.7447 and 16.7021	9.043 and 12.234 and 13.5106	12.234 and 16.7021 and 15.1064	42.234 and 40.3192 and 42.5532	61.7021 and 57.234 and 62.3404	74.1489 and 77.0213 and 79.8936	99.3617 (2×) and 99.0426	100	62.3	–	–
38	–	CCOC(=O)c1sc(NC(=O)C(=NNc2ccc(C(=O)O)cc2)C(C)=O)nc1C [S3-02]	0.3058 and -2.446 and -0.3058	12.2324 and 9.48 and 14.6789	19.5719 and 20.7951 and 20.4893	19.5719 and 21.7125 and 20.1835	22.9358 and 29.3578 (2×)	32.1101 and 33.9449 and 35.474	59.0214 and 60.5505 and 61.1621	81.6514 and 80.7339 and 87.7676	100	41.9	1.24 µM and > 1 µM	–
33.7	–	CCOC(=O)c1sc(NC(=O)C(=NNc2cccc(C(=O)O)c2)C(C)=O)nc1C [S3-03]	4.313 and 4.012 and -1.404	4.012 and 1.304 and -0.5015	11.5346 and 24.4734 and 19.659	33.8014 and 30.1906 and 37.1113	47.6429 and 50.0502 and 47.342	51.8556 and 56.9709 and 59.3781	77.4323 and 79.5386 and 69.007	99.0973 and 98.7964 (2×)	100	33.9	0.36 µM	–
33.7	–	CC(=O)C(=NNc1ccccc1C(=O)O)C(=O)Nc1nccs1 [S3-09]	-0.7659 (2×) and 2.516	0.2188 and -0.1094 and 1.86	6.455 and 3.501 and 2.845	10.3939 and 2.845 and 7.44	45.186 and 26.8053 and 32.3851	57.9869 (2×) and 48.7965	69.1466 and 68.8184 and 61.9256	80.6346 and 77.0241 and 79.6499	100	> 100	–	–
–	binds	B1	–	–	–	–	–	–	–	–	–	–	–	–
–	–	B2	–	–	–	–	–	–	–	–	–	–	–	3
